In experiment [1] the target is T1, P2X2/3 receptors (Rattus norvegicus, UniProt P49653+P49654).
T1 construct: In the membranes of dorsal root ganglia, along with P2X3 receptors, P2X2 and P2X2/3 receptors are also found; endogenous in cells; host or cells: acutely isolated dorsal root ganglion neurons of 9-12-day Wistar rats
T1 sequence (P49653 1-472): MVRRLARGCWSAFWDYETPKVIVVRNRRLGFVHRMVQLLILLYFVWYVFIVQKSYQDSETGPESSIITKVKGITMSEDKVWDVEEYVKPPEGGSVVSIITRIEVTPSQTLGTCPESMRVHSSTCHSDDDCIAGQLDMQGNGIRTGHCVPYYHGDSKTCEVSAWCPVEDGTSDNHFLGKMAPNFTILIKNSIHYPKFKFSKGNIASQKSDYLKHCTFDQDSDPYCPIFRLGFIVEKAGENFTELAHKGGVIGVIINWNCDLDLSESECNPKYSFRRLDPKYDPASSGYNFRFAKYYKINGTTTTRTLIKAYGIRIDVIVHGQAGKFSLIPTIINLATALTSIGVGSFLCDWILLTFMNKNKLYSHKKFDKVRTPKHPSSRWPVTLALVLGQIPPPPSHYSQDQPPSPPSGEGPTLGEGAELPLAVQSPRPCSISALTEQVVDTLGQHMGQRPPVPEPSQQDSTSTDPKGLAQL
T1 sequence (P49654 1-397): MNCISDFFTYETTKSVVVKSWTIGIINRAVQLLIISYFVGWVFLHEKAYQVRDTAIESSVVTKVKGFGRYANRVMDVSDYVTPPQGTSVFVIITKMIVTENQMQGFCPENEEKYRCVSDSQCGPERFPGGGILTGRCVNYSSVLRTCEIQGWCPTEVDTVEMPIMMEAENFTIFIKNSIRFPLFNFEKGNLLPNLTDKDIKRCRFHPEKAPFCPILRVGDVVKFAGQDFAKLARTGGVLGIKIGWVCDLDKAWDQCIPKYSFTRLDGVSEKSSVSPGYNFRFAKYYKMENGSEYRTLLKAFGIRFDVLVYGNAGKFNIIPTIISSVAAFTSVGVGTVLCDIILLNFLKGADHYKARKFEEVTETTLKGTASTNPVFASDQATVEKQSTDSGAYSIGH
To be noted: agonist sensitivity, dorsal root ganglia neurons; read-out: sensitivity of P2X2/3 receptor to agonist (Kd); cited from earlier work.

The target of experiment [2] is T2, P2X2 receptors (Rattus norvegicus, UniProt P49653).
T2 construct: In the membranes of dorsal root ganglia, along with P2X3 receptors, P2X2 and P2X2/3 receptors are also found; endogenous in cells; host or cells: acutely isolated dorsal root ganglion neurons of 9-12-day Wistar rats
T2 sequence (P49653 1-472): T1 sequence (P49653 1-472)
To be noted: agonist activation; cited from earlier work.

The target in experiment [3] is T1, P2X2/3 receptors. Briefly: Whole-cell patch clamp of P2X2/3-mediated currents in rat dorsal root ganglia neurons. The format is cell-based. The note with it: PT6 50 nM (FIG. 2). As for the experimental part: (§1) In the membranes of dorsal root ganglia, along with P2X3 receptors, P2X2 and P2X2/3 receptors are also found [Burgard E. C. et al. P2X receptor-mediated ionic currents in dorsal root ganglion neurons//J. Neurophysiol., 1999, V. 82, P. 1590-1598]. The time for exit of P2X3 receptors from desensitization is very large compared to P2X2 and P2X2/3 receptors. With the agonist application for 1 min, all observed responses, except for the first, are mediated by P2X2 and P2X2/3 receptors. The sensitivity of P2X2/3 receptor to ATP and α,β-methylene-ATP is similar (Kd ˜30 μM), and the minimal concentration of α,β-methylene-ATP necessary for activation of P2X2 receptors is at least 100 μM. The equivalence of ionic currents observed in response to consecutive application of ATP and α,β-methylene-ATP indicates a significant predominance of P2X2/3 receptors on the cell membrane. In cells, which generate ionic currents of various amplitude, i.e. greater in response to ATP application, and very low in response to application of α,β-methylene-ATP, the membrane contains mainly P2X2 receptors. […] Therefore, it has been established suddenly that peptide PT6 acts selectively on the receptors of P2X3 isoform and is a selective antagonist of purinergic P2X3 receptors.
Background: Patch clamp records ionic current or voltage across a cell membrane.

The target of another experiment is P2X3 receptors (Rattus norvegicus, UniProt P49654). The note with it: PT6 50 nM; rat sensory (dorsal root ganglia) neurons; agonist CTP 100 μM; holding potential −60 mV.
The target of experiment [4] is T2, P2X2 receptors. The experiment can be described thus: Whole-cell patch clamp of P2X2-mediated currents in rat dorsal root ganglia neurons. It is filed as cell-based. The note with it: PT6 50 nM (FIG. 2). As for the experimental part: as §1

Where no end group is shown, it is not given here.

Description for P2X3 receptors: Neurons for the experiments are isolated from dorsal root ganglia of 9-12-day Wistar rats. The ganglia are placed to a Petri dish filled with the extracellular solution (130 mM NaCl, 5 mM KCl, 2 mM CaCl2, 2 mM MgCl2, 20 mM HEPES, pH 7.4) at room temperature, and then transferred to the enzyme solution (1 mg of trypsin and 2 mg of collagenase in 2 ml of the extracellular solution) heated up to 35° C., and incubated for 10 min. Then the ganglia are rinsed thoroughly with a pure (without enzymes) extracellular solution in another Petri dish. Single cells are isolated from the rinsed ganglia using fine needles. A dish with single cells is transferred to the electrophysiological unit. The experiments begin after all cells are settled to the dish bottom in 30 min after isolation.
Electrophysiological tests are performed using the whole-cell configuration of the classic method of patch clamp and the approach of a rapid application of a substance (agonist), which binds to P2X3 receptors and induces ion channel opening. The electrophysiological setup consists of three parts: microscope; sample application system (“jumping table”; Pharma Robot, Ukraine); and recording system of the current flowing through channels in the cell plasma membrane. […] Currents are recorded at the holding potential of −60 mV and room temperature with a Model 2400 Patch Clamp Amplifier (A-M Systems, USA). […]

In the case of `Nc1ncnc2c1ncn2[C@@H]1O[C@H](COP(=O)(O)OP(=O)(O)OP(=O)(O)O)[C@@H](O)[C@H]1O` [ATP, adenosine triphosphate], the Kd on P2X2/3 receptors [1] was roughly 30 µM.
Regarding `Nc1ncnc2c1ncn2[C@@H]1O[C@H](COP(=O)(O)CP(=O)(O)OP(=O)(O)O)[C@@H](O)[C@H]1O` [α,β-methylene-ATP], at P2X2/3 receptors [1], the Kd was roughly 30 µM. For the same compound, the “minimal concentration necessary for activation of P2X2 receptors” value at P2X2 receptors [2] is given as “at least 100 μM”.
In the case of “GYCATKGIKCNDIHCCSGLKCDSKRKVCVKG (cysteine pairing not given here) [PT6]”, the “effect on ionic currents mediated by P2X2/3 receptors” value with P2X2/3 receptors [3] is on record as “does not affect”. For the same compound, the “decrease of the current amplitude mediated by P2X3 receptors (inhibition of currents)” value with P2X3 receptors worked out at 80%. For the same compound, the “effect on ionic currents mediated by P2X2 receptors” value with P2X2 receptors [4] is “does not affect”.

The record behind these values is patent US10981958B2, “Peptide modulator of purinergic receptors” (priority 2016, dated 2021).
